PMC9574860, “Chemical Toolkit for PARK7: Potent, Selective, and High-Throughput” (Journal of Medicinal Chemistry, 2022)
“Also recorded” adds a separate entry of the source.

Columns and labels:
[1] = molecular target: T1, PARK7 (Homo sapiens, UniProt Q99497); experiment: FP assay with Rhodamine110 probe JYQ-107 (IC50 and hit validation); format: binding; set-up: GST (N, cleaved yes); made in house; host or cells: E. coli BL21(DE3) Rosetta2; conditions: PARK7 0.2 μM, 1 h preincubation, JYQ-107 20 nM
T1 sequence (Q99497 1-189): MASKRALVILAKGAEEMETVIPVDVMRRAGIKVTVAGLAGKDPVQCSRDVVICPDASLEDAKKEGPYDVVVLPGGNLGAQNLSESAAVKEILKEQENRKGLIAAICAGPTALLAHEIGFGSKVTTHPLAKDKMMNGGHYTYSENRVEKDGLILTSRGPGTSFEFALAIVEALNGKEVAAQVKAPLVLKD

[2] = molecular target: T1, PARK7; experiment: Gel-based competition assay in HEK293T cell lysate with probe JYQ-92; format: biochemical; set-up: GST (N, cleaved yes); made in house; host or cells: E. coli BL21(DE3) Rosetta2; conditions: inhibitor 1 h 37 °C, then JYQ-92 1 μM 30 min, Figure 4E
Description: We next assessed whether we could measure the inhibitory activity of an inhibitor against PARK7 in a cell lysate using JYQ-92 to label the remaining activity of PARK7. […] The disappearance of the labeling band is a measure for inhibition.

[3] = molecular target: T1, PARK7; experiment: Gel-based competition assay with probe 8RK59, PARK7 band; format: biochemical; set-up: GST (N, cleaved yes); made in house; host or cells: E. coli BL21(DE3) Rosetta2
Procedure: To assess the inhibitory potency and selectivity of these compounds toward PARK7 and UCHL1, we performed a gel-based competition assay (Figure 3A).[36] A mixture of equal amounts of PARK7 and UCHL1 (1 μM) was treated with each of the synthesized compounds (2 μM) for 1 h, followed by incubation with fluorescent probe 8RK59 (2 μM) for 30 min. Samples were resolved by SDS-PAGE, and the gel was scanned for fluorescence. Inhibition of PARK7 or UCHL1 is reflected by the disappearance of their corresponding bands (Figure 3B). […] The inhibition potential of JYQ-88 against PARK7 was assessed in a similar assay where PARK7 was incubated with a serial dilution of JYQ-88 before treatment with probe 8RK59 (Figure 3C). A clear inhibition is visible at 0.5 μM, and full inhibition is achieved between 1 and 2 μM. […] The selectivity of JYQ-88 between UCHL1 and PARK7 was further confirmed in a direct competition assay between equal amounts of PARK7 and UCHL1 (Figure 3F). PARK7 inhibition was observed starting from 0.5 μM JYQ-88, whereas inhibition of UCHL1 was only detected at 20 μM. Since JYQ-88 and 8RK64 are enantiomers, we assumed that the interactions with PARK7 should be similar. To investigate how the chiral center influences the selectivity, we solved the crystal structure of the PARK7−JYQ-88 complex with 1.42 Å resolution (Figure 3G, Table S1, PDB 7PA3). The global positioning of the inhibitor in between the two α-helices was similar to that for 8RK64. […] This way, the thiazolo-pyridine part of JYQ-88 is bound in a similar manner as 8RK64 and the earlier observed interactions are largely the same. The formation of the isothiourea moiety, stabilized by the interaction with Glu18, and the interaction between the thiazole amine and the amide NH2 of the Asn76 side chain are still present. However, the interaction between the azidoacetyl carbonyl with the Leu128 backbone carbonyl can no longer be observed due to the rotation of the azidoacetyl moiety. The Lys132 residue also seems to have rotated (compared to Figure 2C).
The assay was performed in Tris buffer as described above.

[4] = test system: DUBs; experiment: DUB activity profiling in HEK293T cell lysate with general DUB probe Rho-Ub-PA; format: biochemical; conditions: compound 5 μM 1 h 37 °C, then Rho-Ub-PA 30 min, Figure S5
Procedure: Due to the structural similarity of PARK7 inhibitor JYQ-88 and UCHL1 inhibitor 8RK64 and the fact that many cyanimide-containing compounds have been identified as DUB inhibitors,[35],[37] we investigated the inhibitory potential of JYQ-88 and JYQ-92 toward DUBs. After treating the HEK293T cell lysate with JYQ-88 and JYQ-92, along with UCHL1 inhibitors, 6RK73 and 8RK64 as controls,[38] the remaining activity of DUBs was determined using the general DUB probe Rho-Ub-PA (Figure S5).[39]
Figure S5. Fluorescence labeling of DUBs to investigate their remaining activity by Rh-Ub-
PA after the treatment with PARK7 inhibitor JYQ-88 and probe JYQ-92. UCHL1 inhibitors,
6RK73 and 8RK64, were used as a control. HEK293T cell lysate was treated with 5 μM final
MOPS SDS running buffer (Novex, NuPAGE) and visualized by fluorescence scanning on a
Typhoon FLA 9500 (GE Healthcare Life Sciences) using a Rhodamine channel (λex/em
(1 picture or pasted object on this page, not shown here)

N#CN1CC[C@@H](C(=O)Nc2nc3c(s2)CN(C(=O)CN=[N+]=[N-])CC3)C1 [JYQ-88, (R)-N-(5-(2-Azidoacetyl)-4,5,6,7-tetrahydrothiazolo[5,4-c]pyridin-2-yl)-1-cyanopyrrolidine-3carboxamide]
IC50 [1]: 240 nM
Inhibitor concentration at which the PARK7 labeling band intensity is already decreased [2]: 0.1 µM
Inhibitor concentration from which the PARK7 labeling band has nearly disappeared [2]: 1 µM
Concentration at which clear inhibition of PARK7 is visible ([3]; PARK7 1 μM, serial dilution of inhibitor, then 8RK59, Figure 3C): 0.5 µM
Inhibition of PARK7 (disappearance of 8RK59-labeled band) ([3]; compound 2 μM, 1 h, PARK7 and UCHL1 1 μM each, then 8RK59 2 μM 30 min, Figure 3B): almost complete inhibition
Concentration from which PARK7 inhibition was observed ([3]; direct competition, equal amounts of PARK7 and UCHL1, Figure 3F): 0.5 µM
Inhibitory potency toward PARK7 compared with 8RK64 ([3]; gel-based PARK7 inhibition assays, Figures 3C and S2): slightly more potent
Effect on remaining DUB activity (Rho-Ub-PA labeled bands) [4]: no influence on DUB activity; also recorded: without showing any effect
